# Key:
# Assay type in all cases: physicochemical
# [1] = Decomposition temperature of the solid form (thermal analysis)
# Method: TGA analysis was performed on a Mettler-Toledo™ thermogravimetric analyzer (TGA850 or TGA851). System suitability tests were performed with Hydranal as reference substance and calibrations using aluminum and indium as reference substances.
# For the thermogravimetric analyses, approx. 5 to 10 mg of sample were placed in aluminum pans, accurately weighed and hermetically closed with perforation lids. Prior to measurement, the lids were automatically pierced resulting in approx. 1.5 mm pin holes. The samples were then heated under a flow of nitrogen of about 50 mL/min using a heating rate of 5 K/min.
# [2] = Hygroscopicity of the solid forms (DVS sorption/desorption isotherms); details: in words
# Method: (§1) DVS isotherms were collected on a DVS-1, DVS-HT and DVS Intrinsic (SMS Surface Measurements Systems) moisture balance system. The sorption/desorption isotherms were measured stepwise in a range of 0% RH to 90% RH at 25° C. A weight change of <0.002 mg/min was chosen as criterion to switch to the next level of relative humidity (with a maximum equilibration time of 24 hours, if the weight criterion was not met). The data were corrected for the initial moisture content of the samples; that is, the weight after drying the sample at 0% RH was taken as the reference point.
# [3] = Competing slurry experiment between Free acid Forms A, B and C; details: isopropyl acetate, 20 and 60° C., seeded with Free acid Form B and Form C, 14 days, wet stage XRPD
# Method: Description of a typical competing slurry experiment:
# 200 and 300 mg of form A of (S)-2-methoxy-3-{4-[2-(5-methyl-2-phenyl-oxazol-4-yl)-ethoxy]-benzo[b]thiophen-7-yl}-propionic acid were each suspended in ca. 1 mL of isopropyl acetate at 20 and 60° C., respectively. After 24 h the two suspensions were seeded with approximately 10 mg of Free acid Form B and Free acid Form C. After 14 days the crystals were harvested by filtration and analyzed in wet stage by XRPD.
# [4] = Relative stability of the solid forms (statements in words); details: for solid form stability: in words
# [5] = Thermal solid-form transformation (DSC, temperature controlled XRPD); details: for temperature of thermal transformation into Sodium salt Form A: incubation at high temperature; for glass transition temperature, above which recrystallization is likely to occur: midpoint
# Method: DSC curves were recorded using a Mettler-Toledo™ differential scanning calorimeter DSC820, DSC821 or DSC1 with a FRS05 sensor. System suitability tests were performed with indium as reference substance and calibrations were carried out using indium, benzoic acid, biphenyl and zinc as reference substances.
# For the measurements, approximately 2-6 mg of sample were placed in aluminum pans, accurately weighed and hermetically closed with perforation lids. Prior to measurement, the lids were automatically pierced resulting in approx. 1.5 mm pin holes. The samples were then heated under a flow of nitrogen of about 100 mL/min using heating rates of usually 10 K/min.
# (§2) X-ray powder diffraction patterns were recorded at ambient conditions in transmission geometry with a STOE STADI P diffractometer (Cu K ? ? radiation, primary monochromator, position sensitive detector, angular range 3° to 42° 2Theta, approximately 60 minutes total measurement time). Approximately 25 mg of sample were prepared and analyzed without further processing (e.g. grinding or sieving) of the substance.
# [6] = Humidity-induced solid-form transformation (humidity controlled XRPD, DVS); details: at 25° C.
# Method: as §1, §2
compound,measurement,setting,value
diisopropylammonium (S)-2-methoxy-3-{4-[2-(5-methyl-2-phenyl-oxazol-4-yl)-ethoxy]-benzo[b]thiophen-7-yl}-propanoate [Diisopropylammonium salt Form A],decomposition temperature,[1],approx. 100 °C
same,hygroscopicity,[2],slightly hygroscopic
"CO[C@@H](Cc1ccc(OCCc2nc(-c3ccccc3)oc2C)c2ccsc12)C(=O)O [Free acid Form A, (S)-2-methoxy-3-{4-[2-(5-methyl-2-phenyl-oxazol-4-yl)-ethoxy]-benzo[b]thiophen-7-y1}-propionic acid]",solid form obtained in competing slurry,[3],pure Free acid Form A is obtained
same,thermodynamic stability among polymorphs,[4]; below ca. 60° C.,thermodynamically most stable polymorph
same,temperature of transformation into Free acid Form B,[5]; temperature controlled XRPD,> 85 °C
same,hygroscopicity,[2],non-hygroscopic
"CO[C@@H](Cc1ccc(OCCc2nc(-c3ccccc3)oc2C)c2ccsc12)C(=O)[O-].[Na+] [Sodium salt Form A, sodium (S)-2-methoxy-3-{4-[2-(5-methyl-2-phenyl-oxazol-4-yl)-ethoxy]-benzo[b]thiophen-7-yl}-propanoate]",relative humidity above which transformation into hydrated form occurs,[6],> 80 % RH
same,temperature of transformation into Sodium salt Form B,[5],> 208 °C
"CO[C@@H](Cc1ccc(OCCc2nc(-c3ccccc3)oc2C)c2ccsc12)C(=O)[O-].[Na+] [Sodium salt amorphous form, sodium (S)-2-methoxy-3-{4-[2-(5-methyl-2-phenyl-oxazol-4-yl)-ethoxy]-benzo[b]thiophen-7-yl}-propanoate]",relative humidity above which transformation into hydrated form occurs,[6],Above 50 % RH
same,temperature of thermal transformation into Sodium salt Form A,[5],> 115 °C
same,"glass transition temperature, above which recrystallization is likely to occur",[5],approx. 65.5 °C
same,hygroscopicity,[2],hygroscopic
"CO[C@@H](Cc1ccc(OCCc2nc(-c3ccccc3)oc2C)c2ccsc12)C(=O)O [Free acid Form D, (S)-2-methoxy-3-{4-[2-(5-methyl-2-phenyl-oxazol-4-yl)-ethoxy]-benzo[b]thiophen-7-yl}-propionic acid]",solid form stability,[4],transforms into Free acid Form B upon storage at ambient conditions over time
"CO[C@@H](Cc1ccc(OCCc2nc(-c3ccccc3)oc2C)c2ccsc12)C(=O)O [Free acid Form C, (S)-2-methoxy-3-{4-[2-(5-methyl-2-phenyl-oxazol-4-yl)-ethoxy]-benzo[b]thiophen-7-yl}-propionic acid]",thermodynamic stability among polymorphs,[4]; at ambient temperature,thermodynamically less stable than Free acid Form A and Free acid Form B
same,temperature of transformation into Free acid Form B,[5]; extrapolated peak DSC,ca. 150 °C
"CO[C@@H](Cc1ccc(OCCc2nc(-c3ccccc3)oc2C)c2ccsc12)C(=O)O [Free acid Form B, (S)-2-methoxy-3-{4-[2-(5-methyl-2-phenyl-oxazol-4-yl)-ethoxy]-benzo[b]thiophen-7-y1}-propionic acid]",temperature below which spontaneous transformation into Free acid Form A occurs,[5]; extrapolated peak DSC,< −5 °C
same,temperature of spontaneous solid-solid retransformation into Free acid Form A,[5]; observed at this temperature or below,≤ 45 °C
"CO[C@@H](Cc1ccc(OCCc2nc(-c3ccccc3)oc2C)c2ccsc12)C(=O)O [Free acid Form E, (S)-2-methoxy-3-{4-[2-(5-methyl-2-phenyl-oxazol-4-yl)-ethoxy]-benzo[b]thiophen-7-yl}-propionic acid]",solid form stability,[4],transforms into Free acid Form B upon mild heating
"CO[C@@H](Cc1ccc(OCCc2nc(-c3ccccc3)oc2C)c2ccsc12)C(=O)O [amorphous form of the Free acid, (S)-2-methoxy-3-{4-[2-(5-methyl-2-phenyl-oxazol-4-yl)-ethoxy]-benzo[b]thiophen-7-yl}-propionic acid]","glass transition temperature, above which recrystallization is likely to occur",[5],approx. 44 °C
same,hygroscopicity,[2]; listed as amorphous form of (S)-2-methoxy-3-{4-[2-(5-methyl-2-phenyl-oxazol-4-yl)-ethoxy]-,hygroscopic
"CO[C@@H](Cc1ccc(OCCc2nc(-c3ccccc3)oc2C)c2ccsc12)C(=O)[O-].[Na+] [Sodium salt Form C, sodium (S)-2-methoxy-3-{4-[2-(5-methyl-2-phenyl-oxazol-4-yl)-ethoxy]-benzo[b]thiophen-7-yl}-propanoate]",relative humidity below which reversible transformation into a dehydrated solid form occurs,[6]; humidity controlled XRPD,< 15 %-RH
"CO[C@@H](Cc1ccc(OCCc2nc(-c3ccccc3)oc2C)c2ccsc12)C(=O)[O-].[Na+] [Sodium salt Form B, sodium (S)-2-methoxy-3-{4-[2-(5-methyl-2-phenyl-oxazol-4-yl)-ethoxy]-benzo[b]thiophen-7-yl}-propanoate]",solid form stability,[4],metastable
same,temperature of thermal transformation into Sodium salt Form A,[5],> 120 °C

# — patent US20170281602A1, “SOLID FORMS OF (S)-2-METHOXY-3--PROPIONIC ACID AND OF SALTS THEREOF” (Hoffmann-La Roche Inc., priority 2012, published 2017)
